Entries after “also recorded” stand apart in the source; their conditions may differ.
Tests used:
[1] = tested on: YUMM1.5 melanoma cells; assay: YUMM1.5 melanoma tumor growth in WT or Rnf5−/− mice given mucin or inulin; type: in vivo, mouse; conditions: 3% mucin in drinking water or 15% inulin diet from 14 days prior to tumor inoculation
Source text: (§1) FIG. 4A depicts plots of human fecal samples cultivated under anaerobic conditions in chemically defined medium with or without exogenous carbohydrate (n=6). Relative abundance of taxa encoding extensive glycosyl hydrolase activities. Cultures with no exogenous sugar were compared to cultures with N-acetyl-mannosamine, galactomannan and porcine gastric mucin. […] FIG. 4C depicts computer simulation identifies the uptake rates of mucin and inulin degradation products in the 2 media predicted to sustain the WT and Rnf5^−/− communities, showing higher predicted consumption of mucin and inulin products in the Rnf5^−/− community. FIG. 4D depicts YUMM1.5 tumor growth in WT or Rnf5^−/− mice provided with 0 or 3% mucin in drinking water starting 14 days prior to tumor inoculation (n=15). FIG. 4E depicts growth of Yumm1.5 tumors in WT or Rnf5^−/− received a control diet or a diet enriched 15% inulin 14 days prior to and during tumor inoculation (n=15). FIG. 4F depicts fold-changes of median abundances between Rnf5^−/−, mucin and inulin treated and WT mice, for 30 taxa that discriminate tumor attenuating and non-attenuating phenotypes.
To test this directly it was investigated whether administration of mucin to WT mice could phenocopy Rnf5^−/− mice, in terms of tumor growth, immune response and gut microbiota composition. […]

[2] = tested on: tumor-infiltrating immune cells; assay: Tumor-infiltrating immune cells and immune gene transcription in mucin- or inulin-fed mice; type: in vivo, mouse
Source text: To test this directly it was investigated whether administration of mucin to WT mice could phenocopy Rnf5^−/− mice, in terms of tumor growth, immune response and gut microbiota composition. […] This prompted us to use machine learning to identify phylotypes that best distinguished WT (non-attenuated tumor growth) from Rnf5^−/− and WT mice treated with mucin or inulin (attenuated tumor growth). […] The immune status of mucin and inulin-fed WT mice also shifted to resemble that of Rnf5′ mice.

[3] = tested on: SW1 cells; assay: Growth of SW1 melanoma in TLR4 mutant C3H/HeJ mice given mucin or inulin; type: in vivo, mouse
Source text: (§2) FIG. 6A depicts growth of SW1 TLR4-mutant tumor cells in C3H/HeJ TLR4 mutant mice provided with control diet, alone or with supplemented mucin or inulin starting 14 days prior to tumor inoculation (n=10). FIG. 6B depicts growth of MC-38 tumors in C57BL/6 mice (n=10) that received, starting 14 days prior to tumor inoculation, control diet, alone or with supplemented mucin or inulin. FIG. 6C depicts tumor volume in C57BL/6 mice (n=10 per group) injected (s.c.) with a melanoma cell line (N-Ras mutant; 1×10^6 cells). The mice were provided control or inulin or mucin supplemented diet. When tumors reached a volume of […], mice were treated with MEKi (PD325901) administered by gavage (10 mg/kg, daily), alone or in combination with inulin or mucin, as indicated. Tumor volume was assessed every 4 days.
To determine whether TLR4, the receptor for bacterial lipopolysaccharides, might be involved in the mucin-induced anti-tumor immune phenotype, the growth of mouse melanoma SW1 cells was examined in Tlr4^−/− C3H/HeJ mice.

[4] = tested on: MC-38 cells; assay: Growth of MC-38 colon cancer tumors in C57BL/6 mice given mucin or inulin; type: in vivo, mouse
Source text: as §2
Next, it was determined whether mucin or inulin are also able to impact growth of colon cancer cells, representative of a different tumor type. Growth of MC-38 cells injected to WT mice was attenuated by inulin but not mucin (FIG. 6B). […] Corresponding increase in CD4, CD8, CD45 and DC, including pDC and mDC and MHC-I expression on DC, was identified in tumors subjected to the MEKi+inulin treatment.

[5] = tested on: human fecal samples; assay: Anaerobic cultivation of fecal samples with a sole carbohydrate source; type: cell-based; conditions: in vitro, unpublished results
Source text: as §1
The differences in the gut microbiota of Rnf5^−/− and WT mice before and during tumor formation highlighted a functionally coherent group of species that define a food web enriched for species encoding extensive glycosyl hydrolase activities. […]

[6] = tested on: tumor growth; assay: Tumor growth in Rnf5−/− mice treated with chemical chaperone; type: in vivo, mouse; conditions: treatment to alleviate ER stress
Source text: To understand the mechanism by which altered function of Rnf5^−/− mice might influence the anti-tumor immune response, changes in the intestinal epithelial cells (IECs) were examined, which cells play critical roles in both innate and adaptive immunity.

[7] = tested on: tumor growth; assay: Fecal microbiota analysis of Rnf5−/− and WT tumor bearing mice; type: in vivo, mouse; conditions: Rnf5−/− vs WT microbiota
Experimental: The fecal microbiota of Rnf5^−/− and WT mice were analyzed. […] Of those, increased relative abundance of several bacterial taxa (including Bacteroides spp., B. acidifaciens, B. chinchilla, B. xylanisolvens, Parabacteroides merdae, Porphyromonas canis, Rickenella microfusus) and decreased abundance of others (including unclassified Bifidobacterium spp., B. choerinum, Odoribacter denticanis, Parabacteroides goldsteinii, unclassified Olivibacter, Parapedobacter koreensis) typified the microbiome of Rnf5^−/− mice bearing tumors, compared with the WT genotype.
The fecal microbiota of Rnf5−/− and WT mice were further analyzed. Marked differences in the microbial profiles were observed, highlighting differences in community structure depicted in principle component analysis that distinctly segregated Rnf5^−/− from WT microbiota. Analysis of microbiota allowed the identification of 42 phylotypes that distinguished Rnf5^−/− and WT microbiota in tumor bearing mice (FIG. 7). These phylotypes are dominated by a few taxonomic groups, the largest of which fall into the Clostridium cluster (37%). All but four of these may be assigned to Clostrium cluster IV or XIVa, known to be capable of producing butyrate that may influence Foxp3^+ Treg cells expansion. […]

inulin
melanoma tumor growth [1]: attenuate melanoma growth; also recorded: reduced tumor growth | melanoma tumor growth ([1]; listed as Inulin): effective inhibition of melanoma growth | tumor infiltrating immune cell phenotype ([2]; WT mice, tumor): increased tumor infiltration of immune cells | transcription of immune-related genes ([2]; shift to that seen in Rnf5−/− mice, albeit to a lower extent): induced a shift | melanoma growth ([3]; SW1 cells in Tlr4−/− C3H/HeJ mice, supplemented diet from 14 days prior to inoculation): failed to significantly attenuate melanoma growth | CD8+ T cells and TNF-α-producing tumor-infiltrating CD4+ T cells ([3]; SW1 tumors in Tlr4−/− C3H/HeJ mice): not | infiltration of MHC-I and MHC-I on DC cells ([4]; MC-38 tumors): increase in the infiltration | growth of MC-38 cells ([4]; WT C57BL/6 mice, supplemented diet from 14 days prior to inoculation): attenuated | communities generated in fecal cultivation [5]: generated communities similar to that of gastric mucin

O=C(O)CCCc1ccccc1 [4-phenylbutyrate]
tumor growth [6]: did not affect tumor growth

Clostridium clostridioforme
association of bacterial strain with tumor growth [7]: associated with inhibition of tumor growth

Source: US11571446B2, “Gut microbiota and treatment of cancer” (Sanford Burnham Prebys Medical Discovery Institute, priority 2016, dated 2023)
